# Values quoted from earlier work, collected in patent publication US20060105063A1, “Synergic combination of compositions containing aloe vera isolates and their therapeutic application” (priority 2004, published 2006).
# How the values were obtained:
# [1] = tested on: animals ingesting a diet composed of 20% Fucose
smiles,measurement,setting,value
C[C@H](O)[C@@H](O)[C@@H](O)[C@H](O)C=O [Fucose],Oral dose considered safe,healthy 150-pound adult,≤ 34 grams
same,"Rate of excretion, mainly in the urine",humans,approximately 17 micrograms per minute
same,Time to elimination from the bloodstream,"oral, after maximum blood levels",eight to twelve
same,"Microscopic examination of liver, kidney, pancreas and sternal bone marrow",[1]; Fucose-treated rats,no abnormalities
same,Oral toxicity,[1]; animals ingesting a diet composed of 20% Fucose,reduce nerve conduction velocity as well as collagen production
